Test results reported in ChEMBL document CHEMBL1201862, “PubChem BioAssay data set” (2004).
Where “and” joins values, the source holds several entries; their conditions need not be identical. Equal values may be shown once. Calls of active or inactive are those of the source.

Columns and labels:
[1] = molecular target: T1, Mucolipin-3 (Homo sapiens, UniProt Q8TDD5); assay: Dose response cell-based high-throughput screening assay for agonists of the transient receptor potential channel ML3 (TRPML3). [Related pubchem assays: 1526, 1424, 1448 ]; assay type: functional
T1 sequence (Q8TDD5 whole entry): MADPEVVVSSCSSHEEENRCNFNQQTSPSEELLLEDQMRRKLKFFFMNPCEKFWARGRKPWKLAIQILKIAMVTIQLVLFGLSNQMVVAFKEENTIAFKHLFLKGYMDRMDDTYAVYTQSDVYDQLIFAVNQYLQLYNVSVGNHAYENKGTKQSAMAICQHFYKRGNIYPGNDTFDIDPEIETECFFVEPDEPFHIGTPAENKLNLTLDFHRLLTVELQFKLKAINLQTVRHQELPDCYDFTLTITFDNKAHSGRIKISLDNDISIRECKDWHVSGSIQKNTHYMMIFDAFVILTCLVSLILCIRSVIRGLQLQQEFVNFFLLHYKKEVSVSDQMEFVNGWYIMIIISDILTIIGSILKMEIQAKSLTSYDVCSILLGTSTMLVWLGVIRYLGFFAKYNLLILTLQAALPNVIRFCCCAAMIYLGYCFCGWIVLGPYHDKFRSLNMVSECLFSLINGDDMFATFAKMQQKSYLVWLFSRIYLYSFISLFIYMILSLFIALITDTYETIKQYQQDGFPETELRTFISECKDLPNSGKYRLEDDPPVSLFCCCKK

[2] = molecular target: T1, Mucolipin-3; assay: TRPML3 and TRPML2 channel agonists, cell-based, patch clamp, Fura-2 profiling panel, panel member TRPML3 Dose Response (AID 2116)
[3] = molecular target: T2, Ion channel NompC (Danio rerio, UniProt Q7T1G6); assay: TRPML3 and TRPML2 channel agonists, cell-based, patch clamp, Fura-2 profiling panel, panel member TRPN1 Dose Response (AID 2116)
[4] = molecular target: T2, Ion channel NompC; assay: Fluorescence counterscreen assay for TRPML3 agonists: dose response cell-based high-throughput screening assay to identify agonists of the transient receptor potential channel N1 (TRPN1). [Related pubchem assays: 1526, 1424, 1448 ]; assay type: functional
[5] = Luminescence-based counterscreen assay for KLF5 inhibitors: dose response cell-based high throughput screening assay to identify cytotoxic compounds using the IEC-6 intestinal epithelial cell line. [Related pubchem assays: 1700 (Primary screen.), 1834 (Confirmation screen.), 1858 (Summary AID.), 1905 (Counterscreen.)]; assay type: functional
[6] = cytotoxicity in HEK-293T cells, dose response, cytotoxicity control for BCR NF-kB inhibitor project, luminescence, B-cell screen hits (AID 489021); assay type: functional, cell-based;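 note: HEK-293T cells carrying an NF-kB luciferase reporter; cells exposed to compound for about 14 hours before viability readout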
[7] = molecular target: Voltage-dependent T-type calcium channel subunit alpha-1H (Homo sapiens, UniProt O95180); assay type: functional;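 note: channel activity triggered by adding a high calcium stimulation buffer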
[8] = molecular target: C-C chemokine receptor type 6 (Homo sapiens, UniProt P51684); assay: CCR6 receptor antagonists, dose response, cell-based, luminescent beta-arrestin readout (AID 504728); assay type: functional
[9] = molecular target: Beta-galactosidase (Escherichia coli, UniProt Q8VNN2); assay: beta-galactosidase enzyme inhibitors and activators, dose response, artefact control for CCR6 antagonist project, biochemical, E. coli enzyme, set 3 (AID 504712); assay type: functional
[10] = CEM21 lymphoblast cell cytotoxicity, dose response, cytotoxicity control for viral fusion inhibitor project, CellTiter-Glo luminescence, cherry-picked (AID 652042); assay type: functional, cell-based;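 note: potency for signal decrease meaning cytotoxicity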
[11] = ZM109 Env clade C HIV-1 fusion inhibitors, dose response, HeLa effector, CEM target cells, luciferase, cherry-pick (AID 652058); assay type: functional, cell-based
[12] = cells; assay type: functional, cell-based; conditions: HEK-CNG
[13] = inhibitors of clade B AD8 Env fusion, dose response, cell-based, cherry-pick (AID 652062); assay type: functional;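 note: luciferase signal from cell-cell fusion driven by HIV-1 clade B AD8 Env; potency is for inhibitors of fusion seen as a drop in luminescence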
[14] = molecular target: T3, Galanin receptor type 3 (Homo sapiens, UniProt O60755); assay: Fluorescence-based cell-based primary high throughput dose response assay to identify antagonists of the Galanin Receptor 3 (GalR3).; assay type: functional
T3 sequence (O60755 whole entry): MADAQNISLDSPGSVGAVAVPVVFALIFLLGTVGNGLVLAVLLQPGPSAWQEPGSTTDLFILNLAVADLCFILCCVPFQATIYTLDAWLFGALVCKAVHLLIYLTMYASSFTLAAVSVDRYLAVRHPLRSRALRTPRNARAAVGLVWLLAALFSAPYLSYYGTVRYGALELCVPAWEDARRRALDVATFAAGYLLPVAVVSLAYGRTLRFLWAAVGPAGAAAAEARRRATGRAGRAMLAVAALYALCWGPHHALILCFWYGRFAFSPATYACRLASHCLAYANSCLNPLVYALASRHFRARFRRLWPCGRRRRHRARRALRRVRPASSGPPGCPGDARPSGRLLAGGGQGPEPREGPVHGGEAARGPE

[15] = test system: Streptococcus sp. 'group A'; assay: growth inhibition of control SK(-) GAS strain, dose response, counter-screen for streptokinase expression inhibitor project, luminescence, kanamycin, BacTiterGlo, confirmation (AID 1900); assay type: functional, organism-based
[16] = cells; assay type: functional
[17] = microbe, parasite or virus in culture; assay type: functional; conditions: Mycobacterium tuberculosis
[18] = molecular target: NACHT, LRR and PYD domains-containing protein 3 (Homo sapiens, UniProt Q96P20); assay: NALP3 inhibitors in yeast, dose response, luminescent (AID 488799); assay type: functional
[19] = test system: Streptococcus; assay: Group A Streptococcus viability loss, dose response, counter-screen for streptokinase expression inhibitor project, luminescence, BacTiterGlo (AID 1915); assay type: functional, organism-based;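 note: potency for reduction of bacterial viability or growth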
[20] = Vero E6 cell cytotoxicity, dose response, cytotoxicity control for non-replicating M. tuberculosis project, secondary assay (AID 492998); assay type: functional, VeroE6; conditions: Vero C1008
[21] = molecular target: Melanin-concentrating hormone receptor 1 (Homo sapiens, UniProt Q99705); assay: Fluorescence-based counterscreen for antagonists of the G-protein coupled receptor 7 (GPR7): cell-based high throughput dose response assay to identify antagonists of the melanin-concentrating hormone receptor 1 (MCHR1).; assay type: functional
[22] = molecular target: RNA-editing ligase 1, mitochondrial (Trypanosoma brucei brucei, UniProt P86926); assay: TbREL1 ligase inhibitors, dose response, biochemical, fluorescence, Trypanosoma brucei (AID 1117295); assay type: functional
[23] = molecular target: Cytochrome P450 3A4 (Homo sapiens, UniProt P08684); conditions: Potency;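 note: confirmatory qHTS run detecting inhibitors and substrates of CYP3A4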
[24] = molecular target: Cytochrome P450 2C9 (Homo sapiens, UniProt P11712); conditions: Potency
Sequence of Cytochrome P450 2C9 (P11712 whole entry): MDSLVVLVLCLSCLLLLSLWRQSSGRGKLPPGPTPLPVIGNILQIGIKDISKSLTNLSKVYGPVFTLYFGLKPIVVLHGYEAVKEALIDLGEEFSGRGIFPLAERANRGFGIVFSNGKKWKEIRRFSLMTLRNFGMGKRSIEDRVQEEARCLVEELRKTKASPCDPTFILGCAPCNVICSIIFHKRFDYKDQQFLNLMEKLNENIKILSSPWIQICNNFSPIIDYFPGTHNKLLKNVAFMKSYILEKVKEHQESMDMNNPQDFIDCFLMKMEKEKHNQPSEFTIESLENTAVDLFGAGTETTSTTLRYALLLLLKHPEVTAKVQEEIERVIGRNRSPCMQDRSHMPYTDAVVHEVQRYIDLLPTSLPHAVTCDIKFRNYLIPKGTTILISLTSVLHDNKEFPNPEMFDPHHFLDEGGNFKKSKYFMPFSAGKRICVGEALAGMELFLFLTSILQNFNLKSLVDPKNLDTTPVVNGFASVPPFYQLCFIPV

T2 sequence (Q7T1G6 whole entry): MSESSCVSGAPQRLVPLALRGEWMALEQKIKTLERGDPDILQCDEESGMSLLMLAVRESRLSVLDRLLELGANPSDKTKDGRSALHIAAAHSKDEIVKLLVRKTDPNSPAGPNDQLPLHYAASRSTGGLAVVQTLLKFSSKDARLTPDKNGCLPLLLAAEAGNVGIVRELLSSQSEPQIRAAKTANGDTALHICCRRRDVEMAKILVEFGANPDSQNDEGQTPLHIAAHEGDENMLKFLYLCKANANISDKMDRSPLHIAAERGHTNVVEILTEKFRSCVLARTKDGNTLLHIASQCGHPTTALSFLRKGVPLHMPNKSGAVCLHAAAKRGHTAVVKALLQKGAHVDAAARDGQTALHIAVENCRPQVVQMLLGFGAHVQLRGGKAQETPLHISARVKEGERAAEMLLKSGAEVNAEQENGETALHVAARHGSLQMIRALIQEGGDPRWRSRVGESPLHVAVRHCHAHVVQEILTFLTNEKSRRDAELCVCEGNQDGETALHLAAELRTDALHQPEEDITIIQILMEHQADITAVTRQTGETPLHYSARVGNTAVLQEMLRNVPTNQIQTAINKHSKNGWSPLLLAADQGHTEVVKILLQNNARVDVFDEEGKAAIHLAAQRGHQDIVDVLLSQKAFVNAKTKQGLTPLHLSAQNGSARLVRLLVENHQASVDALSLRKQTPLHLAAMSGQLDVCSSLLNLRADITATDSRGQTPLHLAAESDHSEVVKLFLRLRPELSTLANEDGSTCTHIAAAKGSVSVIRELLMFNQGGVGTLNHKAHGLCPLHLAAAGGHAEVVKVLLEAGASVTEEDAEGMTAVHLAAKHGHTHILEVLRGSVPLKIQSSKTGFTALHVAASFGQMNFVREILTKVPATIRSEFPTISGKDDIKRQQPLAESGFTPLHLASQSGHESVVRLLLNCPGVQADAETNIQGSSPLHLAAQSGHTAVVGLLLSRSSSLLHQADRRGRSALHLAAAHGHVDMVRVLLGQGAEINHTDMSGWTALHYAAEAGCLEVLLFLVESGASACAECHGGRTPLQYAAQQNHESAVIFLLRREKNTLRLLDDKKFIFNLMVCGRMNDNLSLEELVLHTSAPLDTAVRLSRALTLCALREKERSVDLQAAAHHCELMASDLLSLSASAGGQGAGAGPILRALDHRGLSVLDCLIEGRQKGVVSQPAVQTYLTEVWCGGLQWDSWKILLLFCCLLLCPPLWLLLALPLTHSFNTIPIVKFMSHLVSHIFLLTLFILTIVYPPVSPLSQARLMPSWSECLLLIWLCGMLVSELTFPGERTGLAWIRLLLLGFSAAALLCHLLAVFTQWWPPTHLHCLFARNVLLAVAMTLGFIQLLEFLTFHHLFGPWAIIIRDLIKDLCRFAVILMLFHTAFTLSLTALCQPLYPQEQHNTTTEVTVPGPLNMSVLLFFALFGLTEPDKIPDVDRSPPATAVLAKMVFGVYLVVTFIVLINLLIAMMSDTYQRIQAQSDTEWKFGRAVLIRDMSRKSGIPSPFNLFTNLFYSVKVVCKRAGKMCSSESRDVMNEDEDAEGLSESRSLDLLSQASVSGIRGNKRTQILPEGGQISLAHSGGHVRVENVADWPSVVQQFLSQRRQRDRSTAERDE
Sequence of NACHT, LRR and PYD domains-containing protein 3 (Q96P20 whole entry, the tested form may be a part): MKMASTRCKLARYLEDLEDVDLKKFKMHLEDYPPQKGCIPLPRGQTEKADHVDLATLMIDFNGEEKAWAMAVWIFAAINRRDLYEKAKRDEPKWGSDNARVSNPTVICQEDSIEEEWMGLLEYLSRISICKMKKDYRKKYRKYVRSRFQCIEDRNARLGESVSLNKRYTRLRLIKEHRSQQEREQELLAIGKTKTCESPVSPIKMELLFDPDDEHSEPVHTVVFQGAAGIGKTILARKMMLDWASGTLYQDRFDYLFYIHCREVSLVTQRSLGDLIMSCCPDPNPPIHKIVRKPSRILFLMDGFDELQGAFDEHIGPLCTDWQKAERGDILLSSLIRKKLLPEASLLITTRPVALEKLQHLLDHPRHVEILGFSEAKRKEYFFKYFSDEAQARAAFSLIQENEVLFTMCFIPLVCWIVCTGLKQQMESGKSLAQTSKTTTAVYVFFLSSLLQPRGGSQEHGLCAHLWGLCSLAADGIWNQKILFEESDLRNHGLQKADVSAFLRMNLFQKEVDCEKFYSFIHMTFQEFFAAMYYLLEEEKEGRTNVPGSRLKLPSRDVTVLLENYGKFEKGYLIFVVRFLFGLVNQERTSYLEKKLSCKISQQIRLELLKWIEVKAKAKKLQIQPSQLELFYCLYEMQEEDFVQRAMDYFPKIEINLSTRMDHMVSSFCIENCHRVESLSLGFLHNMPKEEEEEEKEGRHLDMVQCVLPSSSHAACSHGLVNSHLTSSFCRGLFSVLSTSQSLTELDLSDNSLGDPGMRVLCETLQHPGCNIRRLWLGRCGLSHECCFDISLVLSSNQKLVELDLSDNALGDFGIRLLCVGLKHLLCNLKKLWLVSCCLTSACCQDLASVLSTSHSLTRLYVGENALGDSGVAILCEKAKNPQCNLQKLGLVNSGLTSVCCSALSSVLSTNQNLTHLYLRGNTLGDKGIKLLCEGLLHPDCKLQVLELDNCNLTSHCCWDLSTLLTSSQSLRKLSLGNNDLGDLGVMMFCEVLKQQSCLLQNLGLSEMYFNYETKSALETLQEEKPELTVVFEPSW
Sequence of Beta-galactosidase (Q8VNN2 whole entry, the tested form may be a part): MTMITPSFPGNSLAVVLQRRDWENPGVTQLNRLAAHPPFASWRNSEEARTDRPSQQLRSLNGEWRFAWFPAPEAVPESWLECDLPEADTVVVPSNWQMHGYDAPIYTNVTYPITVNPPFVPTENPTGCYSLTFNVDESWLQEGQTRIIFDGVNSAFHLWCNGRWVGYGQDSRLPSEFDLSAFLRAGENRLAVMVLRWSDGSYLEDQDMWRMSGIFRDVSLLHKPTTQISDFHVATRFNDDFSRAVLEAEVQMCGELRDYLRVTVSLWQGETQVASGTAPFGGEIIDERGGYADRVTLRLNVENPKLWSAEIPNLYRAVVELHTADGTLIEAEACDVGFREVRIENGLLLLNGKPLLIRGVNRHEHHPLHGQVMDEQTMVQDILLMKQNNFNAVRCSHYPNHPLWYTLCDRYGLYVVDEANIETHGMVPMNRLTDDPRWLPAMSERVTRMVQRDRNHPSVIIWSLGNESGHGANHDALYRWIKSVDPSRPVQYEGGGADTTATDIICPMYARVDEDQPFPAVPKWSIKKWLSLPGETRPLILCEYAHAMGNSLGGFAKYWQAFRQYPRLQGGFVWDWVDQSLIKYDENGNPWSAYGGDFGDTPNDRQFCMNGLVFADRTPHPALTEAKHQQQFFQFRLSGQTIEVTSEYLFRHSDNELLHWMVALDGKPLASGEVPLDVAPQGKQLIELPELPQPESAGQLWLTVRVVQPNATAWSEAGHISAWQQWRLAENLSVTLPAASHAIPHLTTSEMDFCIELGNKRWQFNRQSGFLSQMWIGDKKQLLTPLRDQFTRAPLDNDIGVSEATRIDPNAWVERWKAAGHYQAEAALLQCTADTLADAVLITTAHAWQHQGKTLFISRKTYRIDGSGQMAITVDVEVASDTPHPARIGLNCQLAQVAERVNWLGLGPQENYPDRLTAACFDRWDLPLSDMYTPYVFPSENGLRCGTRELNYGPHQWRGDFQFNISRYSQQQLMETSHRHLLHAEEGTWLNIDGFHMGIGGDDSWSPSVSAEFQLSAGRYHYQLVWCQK
Sequence of Cytochrome P450 3A4 (P08684 whole entry): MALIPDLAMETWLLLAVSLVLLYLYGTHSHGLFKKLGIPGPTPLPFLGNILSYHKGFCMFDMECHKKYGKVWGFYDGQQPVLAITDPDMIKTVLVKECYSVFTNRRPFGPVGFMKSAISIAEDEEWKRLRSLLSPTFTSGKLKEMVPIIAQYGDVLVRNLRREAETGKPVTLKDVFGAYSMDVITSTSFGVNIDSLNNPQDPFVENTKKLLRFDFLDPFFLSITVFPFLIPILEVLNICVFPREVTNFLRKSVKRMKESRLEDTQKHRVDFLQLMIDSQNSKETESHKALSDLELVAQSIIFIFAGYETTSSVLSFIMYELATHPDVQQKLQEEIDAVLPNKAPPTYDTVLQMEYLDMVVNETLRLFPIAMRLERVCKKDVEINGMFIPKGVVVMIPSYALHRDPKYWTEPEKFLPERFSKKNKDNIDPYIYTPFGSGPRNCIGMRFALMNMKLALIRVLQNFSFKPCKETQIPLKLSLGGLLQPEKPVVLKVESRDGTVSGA
Sequence of C-C chemokine receptor type 6 (P51684 whole entry): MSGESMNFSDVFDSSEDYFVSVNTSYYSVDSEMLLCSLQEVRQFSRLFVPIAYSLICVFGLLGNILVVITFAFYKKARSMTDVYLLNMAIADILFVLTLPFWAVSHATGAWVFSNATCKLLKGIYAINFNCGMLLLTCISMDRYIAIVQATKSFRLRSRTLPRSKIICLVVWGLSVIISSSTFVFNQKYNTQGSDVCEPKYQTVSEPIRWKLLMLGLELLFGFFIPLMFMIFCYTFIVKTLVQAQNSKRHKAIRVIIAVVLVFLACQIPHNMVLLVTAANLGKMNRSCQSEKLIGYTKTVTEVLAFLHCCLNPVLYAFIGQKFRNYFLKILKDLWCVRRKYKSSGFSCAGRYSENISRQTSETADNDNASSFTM

**Q.** Which results are given for `Cc1ccc(Cl)cc1N1CCN(S(=O)(=O)N2CCCCC2)CC1`?
**A.** EC50 [1]: 1.84 µM (active); EC50 [2]: 3.46 µM (active); EC50 [3]: > 29.9 µM (inactive); EC50 [4]: > 29.9 µM (not active)

**Q.** Which IC50 [5] does the source give for `Cc1ccc(/C=C2/SC(=S)N(CCCC(=O)Nc3ccc(O)cc3)C2=O)cc1` here?
**A.** 14.1 µM (not active)

**Q.** What about the IC50 [6] of the same compound?
**A.** > 80 µM (inactive)

**Q.** Which EC50 [7] does the source give for `CCN(CC)S(=O)(=O)c1cccc(C(=O)N[C@H](C(=O)OCC(=O)Nc2ccccc2)C(C)C)c1` here?
**A.** 0.558 µM (active)

**Q.** For `COCC(C)n1c(-c2ccc3c(c2)NC(=O)CO3)cs/c1=N\c1ccc(OC(F)F)cc1` (centres undefined), which IC50 [8] is on record?
**A.** > 66.6 µM (inactive)

**Q.** And the IC50 [9]?
**A.** > 66.6 µM (inactive)

**Q.** What about the AC50 [10] of the same compound?
**A.** 42.7 µM (active)

**Q.** What about the AC50 [11] of the same compound?
**A.** 4.28 µM (active)

**Q.** What about the EC50 [12] of the same compound?
**A.** > 29.9 µM (inactive)

**Q.** And the AC50 [13]?
**A.** 3.15 µM (active)

**Q.** What about the IC50 [14] of the same compound?
**A.** 4.24 µM (active) and 3.49 µM (active)

**Q.** For `O=c1cc(-c2ccccc2Cl)oc2ccc([N+](=O)[O-])c(O)c12`, which EC50 [15] is on record?
**A.** 4.58 µM (active)

**Q.** What about the IC50 [16] of the same compound?
**A.** 12.1 µM (active)

**Q.** What about the CC50 [17] of the same compound?
**A.** 26.2 µM (active)

**Q.** And the IC50 [18]?
**A.** 9.17 µM (active)

**Q.** What about the EC50 [19] of the same compound?
**A.** 8.09 µM (active)

**Q.** What about the CC50 [20] of the same compound?
**A.** > 20 µM (active)

**Q.** For `COCCNC1=N[C@@H](c2cccc(C(F)(F)F)c2)C(C(=O)OC)=C(C)N1Cc1ccccc1`, which IC50 [21] is on record?
**A.** 14.7 µM (not active)

**Q.** And the IC50 [22]?
**A.** > 96.6 µM (inactive)

**Q.** What does the source list for `OC1c2ccccc2-c2nc3ccccc3cc21` (centres undefined)?
**A.** AC50 [23]: 25.1 µM (inconclusive); AC50 [24]: 25.1 µM (inconclusive)
